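Exposure lasted 48 hours, with cells grown in 96-well plates and compounds tested at five concentrations. At the GI50, growth is halved.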 Calls of active or inactive are those of the source. Rule as the data show it: active = GI50 up to about 1.1 µM and inactive = higher.
Key:
Test in all cases: NCI tumour cell line growth inhibition, 48 h
MDA-N = system: MDA-N
Hs-578T = system: Hs-578T
DLD-1 = system: DLD-1
HOP-18 = system: HOP-18
LXFL 529 = system: LXFL 529
M19-MEL = system: M19-MEL
XF498 = system: XF498
SNB-78 = system: SNB-78

O=P(O)(O)CN1CCNCCN(CP(=O)(O)O)CC1
GI50 (MDA-N): 13.6 µM (inactive) | GI50 (Hs-578T): > 100 µM (inactive)

CSC(=N)N1N=C2c3ccccc3CC[C@@H]2[C@@H]1c1ccccc1
GI50 (DLD-1): 12.9 µM (inactive) | GI50 (HOP-18): 18.5 µM (inactive) | GI50 (LXFL 529): 11.5 µM (inactive) | GI50 (M19-MEL): 15.9 µM (inactive) | GI50 (XF498): 16.7 µM (inactive)

CC1OC(OC2C(OC(=O)[C@]34CCC(C)(C)C[C@H]3C3=CC[C@@H]5[C@@]6(C)CC[C@H](OC7OC(C(=O)O)C(O)C(O)C7O)C(C)(C)[C@@H]6CC[C@@]5(C)[C@]3(C)C[C@H]4O)OCC(O)C2O)C(O)C(OC2OCC(O)(CO)C2O)C1OC1OCC(O)C(O)C1O (stereo partly drawn)
GI50 (MDA-N): 4.31 µM (inactive) | GI50 (Hs-578T): 20.3 µM (inactive)

CCCCCC(=O)N[C@H]1CCc2cc(O)c(O)c(O)c2-c2ccc(SC)c(=O)cc21
GI50 (SNB-78): 65.2 µM (inactive) | GI50 (DLD-1): 19.6 µM (inactive) | GI50 (LXFL 529): 21.5 µM (inactive) | GI50 (M19-MEL): 19.9 µM (inactive)

O=C(Nc1ccc2nc(-c3ccccc3)cn2c1)Oc1ccccc1
GI50 (MDA-N): 14 µM (inactive) | GI50 (Hs-578T): > 100 µM (inactive)

C=CCCCC(C#N)(c1ccccc1)N1CCCC1 (stereo not drawn)
GI50 (SNB-78): > 100 µM (inactive) | GI50 (M19-MEL): > 100 µM (inactive)

Cc1cc(O)nc(CNC(=O)c2cccc(C(=O)NCc3cc(O)nc(C)n3)c2)n1
GI50 (SNB-78): > 100 µM (inactive) | GI50 (DLD-1): > 100 µM (inactive) | GI50 (HOP-18): 68.5 µM (inactive) | GI50 (LXFL 529): > 100 µM (inactive) | GI50 (M19-MEL): > 100 µM (inactive)

Cc1cccc(C(C)C)c1NC(=O)CCl
GI50 (SNB-78): 48.9 µM (inactive) | GI50 (DLD-1): 65 µM (inactive) | GI50 (HOP-18): 53.7 µM (inactive) | GI50 (LXFL 529): 76.7 µM (inactive) | GI50 (M19-MEL): 51.6 µM (inactive)

CC(C)C(=O)C(C)(C)CCc1ccccn1
GI50 (MDA-N): > 100 µM (inactive) | GI50 (Hs-578T): > 100 µM (inactive)

O=C1/C(=C\c2ccc([N+](=O)[O-])cc2)N(S(=O)(=O)c2ccccc2)c2ncccc21
GI50 (MDA-N): 19.5 µM (inactive) | GI50 (Hs-578T): 31.2 µM (inactive)

COc1cc(OC)cc(C(=O)NC2=C(Cl)C(=O)c3ccccc3C2=O)c1
GI50 (MDA-N): 1.91 µM (inactive) | GI50 (Hs-578T): 3.3 µM (inactive)

CCN(CC)CCNc1ccc2ncn3c4c(OC)cccc4c(=O)c1c23
GI50 (MDA-N): 4.27 µM (inactive) | GI50 (Hs-578T): 11.6 µM (inactive)

O=C(OCc1ccccc1CN1CCOCC1)c1cccc(Br)c1
GI50 (Hs-578T): 29.9 µM (inactive)

c1cc(-c2cnc(-c3ccc4c(c3)CCCO4)o2)ccn1
GI50 (MDA-N): 14.7 µM (inactive) | GI50 (Hs-578T): 17.1 µM (inactive)

C#C[C@]1(O)CCCC2=CC(=O)CC[C@@]21C
GI50 (DLD-1): > 100 µM (inactive) | GI50 (HOP-18): > 100 µM (inactive) | GI50 (LXFL 529): > 100 µM (inactive) | GI50 (M19-MEL): > 100 µM (inactive)

COc1cc(C2SCC(=O)N2c2ccc(-n3c(-c4ccccc4)nc4ccccc4c3=O)cc2)ccc1O (stereo not drawn)
GI50 (MDA-N): > 100 µM (inactive) | GI50 (Hs-578T): 22.3 µM (inactive)

Cn1c(=O)c2c3ccccc3c(C(=O)c3ccccc3)n2c2ccccc21
GI50 (SNB-78): 63.2 µM (inactive) | GI50 (DLD-1): 8.24 µM (inactive) | GI50 (HOP-18): 18.7 µM (inactive) | GI50 (LXFL 529): > 24.5 µM (inactive) | GI50 (M19-MEL): 3.68 µM (inactive) | GI50 (XF498): > 50.9 µM (inactive)

C[Si]12OCCCN(CCO1)CCO2
GI50 (SNB-78): > 100 µM (inactive) | GI50 (DLD-1): > 100 µM (inactive) | GI50 (LXFL 529): > 100 µM (inactive) | GI50 (M19-MEL): > 100 µM (inactive)

C=CCN1CC2CN=NC2(C#N)C1 (stereo not drawn)
GI50 (MDA-N): > 100 µM (inactive)

C[C@@H]1CC[C@]2(C(=O)O)CC[C@]3(C)C(=CC[C@@H]4[C@@]5(C)CC[C@H](O)C(C)(C)[C@@H]5CC[C@]43C)[C@@H]2[C@]1(C)O [POMOLIC ACID]
GI50 (Hs-578T): 3.52 µM (inactive)

CC(C)NC(=O)OCc1c(COC(=O)NC(C)C)n(C)c2c1ccc1cc(Cl)c(Cl)cc12
GI50 (MDA-N): 13.6 µM (inactive) | GI50 (Hs-578T): 23.8 µM (inactive)

COc1cc2c(/C=C3/C(=O)Nc4ccc(Cl)cc43)c(Cl)n(Cc3ccccc3)c2cc1C
GI50 (Hs-578T): 4.56 µM (inactive)

COc1cccc2c1C(=O)c1ccc3cc(CO)cc(O)c3c1C2=O
GI50 (MDA-N): 0.19 µM (active) | GI50 (Hs-578T): 3.7 µM (inactive)

COc1ccc(/C=C/C(C(=O)O)C(=O)O)cc1
GI50 (SNB-78): 48.1 µM (inactive) | GI50 (DLD-1): > 100 µM (inactive) | GI50 (LXFL 529): 36.4 µM (inactive) | GI50 (M19-MEL): 61.8 µM (inactive) | GI50 (XF498): > 100 µM (inactive)

COc1cc2c(cc1OC)C(=O)N(c1ccc(OCCN3CCCC3)cc1)C2=O
GI50 (MDA-N): > 100 µM (inactive) | GI50 (Hs-578T): > 100 µM (inactive)

Cc1cccc(C2=C/C(=C(\SS/C(C(=O)c3ccc(OCC(=O)O)c(Cl)c3Cl)=C3\C=C(c4cccc(C)c4)SS3)C(=O)c3ccc(OCC(=O)O)c(Cl)c3Cl)SS2)c1
GI50 (SNB-78): 15.6 µM (inactive) | GI50 (DLD-1): 27.4 µM (inactive) | GI50 (HOP-18): 12.8 µM (inactive) | GI50 (M19-MEL): 19.1 µM (inactive) | GI50 (XF498): 7.98 µM (inactive)

Cc1cc(Cl)ccc1OCC(=O)Nc1nc(N)nc(N)n1
GI50 (MDA-N): > 100 µM (inactive) | GI50 (Hs-578T): > 100 µM (inactive)

C=CCn1c(-c2ccc(-c3cs/c(=N\N=O)n3CC=C)cc2)cs/c1=N\N=O
GI50 (MDA-N): > 100 µM (inactive) | GI50 (Hs-578T): 45.9 µM (inactive)

NNC(=S)N1CCN(C(=S)NN)CC1
GI50 (MDA-N): > 100 µM (inactive) | GI50 (Hs-578T): > 100 µM (inactive)

COc1c2c(cc3c1C(=O)c1c(O)cccc1C3=O)CC(O)CC2 (stereo not drawn)
GI50 (MDA-N): > 100 µM (inactive) | GI50 (Hs-578T): 26.7 µM (inactive)

CCOC(=O)C(C(=O)OCC)C1C=CCC2c3ccccc3COCC21 (stereo not drawn)
GI50 (MDA-N): 40.7 µM (inactive) | GI50 (Hs-578T): 73.8 µM (inactive)

CCC(=N\NC(N)=S)/C(C)=N/O
GI50 (MDA-N): > 100 µM (inactive) | GI50 (Hs-578T): > 100 µM (inactive)

COC(=O)c1ccc(/C=C2\Oc3ccccc3C2=O)cc1
GI50 (MDA-N): > 100 µM (inactive) | GI50 (Hs-578T): > 100 µM (inactive)

Nc1nc(N)c2c(-c3ccccc3)ccnc2n1
GI50 (MDA-N): > 100 µM (inactive)

Source: ChEMBL document CHEMBL1201862, “PubChem BioAssay data set” (2004)
